# Data taken from BindingDB's records for doi:10.1016/0960-894X(96)00232-6 (1996).
# What was measured:
# [1] = Inhibition of ET- 1 stimulated arachidonic acid release (AAR) in cultured rabbit renal vascular smooth muscle cells expressing the endothelin B receptor.
# [2] = Inhibition of ET- 1 stimulated arachidonic acid release (AAR) in cultured rabbit renal vascular smooth muscle cells expressing the endothelin A receptor.
# [3] = Compound was evaluated for the receptor binding activity in rabbit artery vascular smooth muscle cells expressing Endothelin A receptor
SMILES,IC50 [1] [µM],IC50 [2] [µM],IC50 [3] [µM]
"COc1cc2c(Sc3ccc4c(c3)OCO4)c(C(=O)O)n(Cc3ccc4c(c3)OCO4)c2cc1OCc1ccccc1 [1-Benzo[1,3]dioxol-5-ylmethyl-3-(benzo[1,3]dioxol-5-ylsulfanyl)-6-benzyloxy-5-methoxy-1H-indole-2-carboxylic acid]",0.74,3.4,
COc1cccc(Sc2c(C(=O)O)sc3ccccc23)c1 [3-(3-Methoxy-phenylsulfanyl)-benzo[b]thiophene-2-carboxylic acid],,,5.9
COc1cccc(Sc2c(C(=O)O)oc3ccccc23)c1 [3-(3-Methoxy-phenylsulfanyl)-benzofuran-2-carboxylic acid],,,23
"COc1ccc(Sc2c(C(=O)O)n(Cc3ccc4c(c3)OCO4)c3cc4c(cc23)OCO4)cc1OC [5-Benzo[1,3]dioxol-5-ylmethyl-7-(3,4-dimethoxy-phenylsulfanyl)-5H-[1,3]dioxolo[4,5-f]indole-6-carboxylic acid]",,0.065,
